For the assay, the system named is α-SMA. The experiment in a line: in vitro α-SMA expression inhibition (immunostaining, confocal microscopy) in TGF-β1-treated MRC-5 cells. The format is cell-based, human. Conditions: TGF-β1 (5 ng/mL), 72 hours, standardized using GAPDH. The text has this:
When scars are generated in tissue, fibroblasts undergo fibroblast-to-myofibroblast transition (FMT), and the resulting myofibroblasts produce the extracellular matrix, leading to tissue fibrosis. α-SMA is a representative biomarker of myofibroblasts, and its expression greatly increases as FMT progresses. Accordingly, through the evaluation of α-SMA expression inhibitory activity, the efficacy of the compounds in inhibiting fibrosis may be evaluated. Therefore, the inhibitory activity of the compounds of the present invention on α-SMA expression was evaluated in cells. To more accurately evaluate the inhibition of α-SMA expression, IC50 values were determined by treating human lung-derived fibroblasts (MRC-5 cells) with the compounds of the present invention in a concentration-dependent manner.
Specifically, 2 hours after the MRC-5 cells were treated with DMSO or compounds dissolved in serum containing 0.5% fetal bovine serum (FBS) in a concentration-dependent manner, fibrosis was induced by treatment with TGF-β1 (5 ng/mL). After 72 hours, the cells were immobilized with a 2% paraformaldehyde solution for 10 minutes, and to impart cell membrane permeability, a 0.1% Triton X-100 solution was treated for 10 minutes, and a 1% bovine serum albumin (BSA) solution was treated to prevent non-specific binding. For immunostaining, anti-GAPDH (BIO-RAD) was first treated as a primary antibody, and Alexa Fluor™ Plus 555 for GAPDH labeling was used as a secondary antibody. For α-SMA staining, an FITC fluorescence-tagged α-SMA primary antibody was used, and thus the increase and decrease in α-SMA caused by the compounds were evaluated. The immunohistochemical experimental results were confirmed with a STELLARIS 5 confocal microscope (Leica), and FITC-stained α-SMA was standardized using GAPDH labeled with Alexa FluorTM Plus 555 for quantification. The IC50 of the compounds according to the present invention was calculated through statistical analysis (linear mixed effects model). […]

This passage reports IC50 results from EP4700021A1, “NOVEL COMPOUND AND PHARMACEUTICAL COMPOSITION COMPRISING SAME AS ACTIVE INGREDIENT” (Sapiensbio Inc., priority 2023, dated 2025).

`N[C@H]1CCN(C(=O)N2CCN(Cc3cccc(F)c3)c3ccccc32)C1` [Compound 39, (S)-(3-aminopyrrolidin-1-yl)(4-(3-fluorobenzyl)-3,4-dihydroquinoxaline-1(2H)-yl)methanone] showed an IC50 (Homo sapiens) of less than 1 µM.
Under “Homo sapiens”, `CC(C)N1CC[C@H](NC(=O)N2CCN(c3ccccn3)c3ccccc32)C1` [Compound 11, (S)-N-(1-isopropylpyrrolidin-3-yl)-4-(pyridin-2-yl)-3,4-dihydroquinoxaline-1(2H)-carboxamide] returned a concentration for half-maximal inhibition (IC50) of 1 to 10 µM.
Compound `CC1(NC(=O)N2CCN(Cc3ccccn3)c3ccccc32)COC1` [Compound 55, N-(3-Methyloxetan-3-yl)-4-(pyridin-2-ylmethyl)-3,4-dihydroquinoxaline-1(2H)-carboxamide] came in with an IC50 (Homo sapiens) of less than 1 µM.
`N[C@H]1CCN(C(=O)N2CCN(Cc3ccccc3F)c3ccccc32)C1` [Compound 37, (S)-(3-aminopyrrolidin-1-yl)(4-(2-fluorobenzyl)-3,4-dihydroquinoxaline-1(2H)-yl)methanone]: the IC50 (Homo sapiens) lay within 1 to 10 µM.
Still for that read-out and setting: the result for `CC(C)CN1CCC(NC(=O)N2CCN(c3cnccn3)c3ccccc32)CC1` [Compound 27, N-(1-isobutylpiperidin-4-yl)-4-(pyrazin-2-yl)-3,4-dihydroquinoxaline-1(2H)-carboxamide] reads 10 to 30 µM; that for `CN1CC[C@@H](COC(=O)N2CCN(c3cnccn3)c3ccccc32)C1` [Compound 31, (R)-(1-methylpyrrolidin-3-yl)methyl-4-(pyrazin-2-yl)-3,4-dihydroquinoxaline-1(2H)-carboxylate], 1 to 10 µM; that for `CC(C)CC(=O)N1CCN(C(=O)NCC2CCNCC2)c2ccccc21` [Compound 77, 4-(3-Methylbutanoyl)-N-(piperidin-4-ylmethyl)-3,4-dihydroquinoxaline-1(2H)-carboxamide], not above 30 µM.
Same read-out and setting: the result for `CN1CCC(CNC(=O)N2CCN(Cc3ccc(F)cn3)c3ccccc32)CC1` [Compound 67, 4-((5-fluoropyridin-2-yl)methyl)-N-((1-methylpiperidin-4-yl)methyl)-3,4-dihydroquinoxaline-1(2H)-carboxamide] reads not above 30 µM.
As to `CN[C@H]1CCN(C(=O)N2CCN(Cc3ccccc3F)c3ccccc32)C1` [Compound 38, (S)-(4-(2-fluorobenzyl)-3,4-dihydroquinoxaline-1(2H)-yl)(3-(methylamino)pyrrolidin-1-yl)methanone], under “Homo sapiens”, the IC50 was in the range of 1 to 10 µM.
The compound “(S)-N-(1-isobutylpyrrolidin-3-yl)-4-(pyrazin-2-ylmethyl)-3,4-dihydroquinoxaline-1(2H)-carboxamide [Compound 44]” had an IC50 not above 30 µM.
For the setting “Homo sapiens”, `O=C(NC1CCNCC1)N1CCN(c2cnccn2)c2ccccc21` [Compound 23, N-(piperidin-4-yl)-4-(pyrazin-2-yl)-3,4-dihydroquinoxaline-1(2H)-carboxamide] had an IC50 of 1 to 10 µM.
Where the note is “Homo sapiens”, `CN1CCC(NC(=O)N2CCN(c3ccc(F)cn3)c3ccccc32)CC1` [Compound 18, 4-(5-fluoropyridin-2-yl)-N-(1-methylpiperidin-4-yl)-3,4-dihydroquinoxaline-1(2H)-carboxamide] gave an IC50 of 1 to 10 µM.
The same measure, in the same setting: the result for `CN1CCC(CNC(=O)N2CCN(Cc3ncccc3F)c3ccccc32)CC1` [Compound 69, 4-((3-fluoropyridin-2-yl)methyl)-N-((1-methylpiperidin-4-yl)methyl)-3,4-dihydroquinoxaline-1(2H)-carboxamide] reads 1 to 10 µM.
The same measure, in the same setting: for `O=C(NC[C@H]1CCOC1)N1CCN(Cc2ccccn2)c2ccccc21` [Compound 60, (R)-4-(pyridin-2-ylmethyl)-N-((tetrahydrofuran-3-yl)methyl)-3,4-dihydroquinoxaline-1(2H)-carboxamide] the value was 10 to 30 µM; for `CN1CC[C@@H](NC(=O)N2CCN(Cc3ccccc3)c3ccccc32)C1` [Compound 34, (R)-4-benzyl-N-(1-methylpyrrolidin-3-yl)-3,4-dihydroquinoxaline-1(2H)-carboxamide], 1 to 10 µM; for `CN1CC[C@H](NC(=O)N2CCN(c3cnccn3)c3ccccc32)C1` [Compound 20, (S)-N-(1-methylpyrrolidin-3-yl)-4-(pyrazin-2-yl)-3,4-dihydroquinoxaline-1(2H)-carboxamide], less than 1 µM.
For the setting “Homo sapiens”, `O=C(NCC1CCNCC1)N1CCN(Cc2ncccc2F)c2ccccc21` [Compound 68, 4-((3-fluoropyridin-2-yl)methyl)-N-(piperidin-4-ylmethyl)-3,4-dihydroquinoxaline-1(2H)-carboxamide] showed an IC50 not above 30 µM.
For the compound `O=C(NCC1COC1)N1CCN(Cc2ccccn2)c2ccccc21` [Compound 56, N-(oxetan-3-ylmethyl)-4-(pyridin-2-ylmethyl)-3,4-dihydroquinoxaline-1(2H)-carboxamide], the IC50 (Homo sapiens) was 10 to 30 µM.
Same read-out and setting: the result for `CN[C@H]1CCN(C(=O)N2CCN(Cc3ccccc3)c3ccccc32)C1` [Compound 36, (S)-(4-benzyl-3,4-dihydroquinoxaline-1(2H)-yl)(3-(methylamino)pyrrolidin-1-yl)methanone] reads 10 to 30 µM.
Where the note is “Homo sapiens”, `CC(C)CN1CC[C@H](NC(=O)N2CCN(c3cnccn3)c3ccccc32)C1` [Compound 22, (S)-N-(1-isobutylpyrrolidin-3-yl)-4-(pyrazin-2-yl)-3,4-dihydroquinoxaline-1(2H)-carboxamide] registered an IC50 not above 30 µM.
Still for that read-out and setting: for `CC(C)(C)CC(=O)N1CCN(C(=O)N2CCNCC2)c2ccccc21` [Compound 78, 3,3-dimethyl-1-(4-(piperazine-1-carbonyl)-3,4-dihydroquinoxaline-1(2H)-yl)butan-1-one] the value was not above 30 µM; for `O=C(N[C@@H]1CCNC1)N1CCN(Cc2ccccc2)c2ccccc21` [Compound 33, (R)-4-benzyl-N-(pyrrolidin-3-yl)-3,4-dihydroquinoxaline-1(2H)-carboxamide], 1 to 10 µM; for `O=C(N1CCOCC1)N1CCN(c2ccccc2Cl)c2ccccc21` [Compound 9, (4-(2-chlorophenyl)-3,4-dihydroquinoxaline-1(2H)-yl)(morpholino)methanone], not above 30 µM.
The compound `CN1CCC(NC(=S)N2CCN(c3cnccn3)c3ccccc32)CC1` [Compound 29, N-(1-methylpiperidin-4-yl)-4-(pyrazin-2-yl)-3,4-dihydroquinoxaline-1 (2H)-carbothioamide] displayed an IC50 (Homo sapiens) of 1 to 10 µM.
Still for that read-out and setting: for `CN1CCC(COC(=O)N2CCN(Cc3ccccn3)c3ccccc32)CC1` [Compound 65, (1-methylpiperidin-4-yl)methyl-4-(pyridin-2-ylmethyl)-3,4-dihydroquinoxaline-1(2H)-carboxylate] the value was 10 to 30 µM; for `O=C(NC1COC1)N1CCN(Cc2ccccn2)c2ccccc21` [Compound 54, N-(oxetan-3-yl)-4-(pyridin-2-ylmethyl)-3,4-dihydroquinoxaline-1(2H)-carboxamide], less than 1 µM.
The same measure, in the same setting: the result for `O=C(NCC1CC1)N1CCN(c2ccc(F)cc2)c2cc(F)ccc21` [Compound 3, N-(cyclopropylmethyl)-6-fluoro-4-(4-fluorophenyl)-3,4-dihydroquinoxaline-1(2H)-carboxamide] reads 1 to 10 µM; that for `O=C(NC[C@H]1CCCN1)N1CCN(Cc2ccccn2)c2ccccc21` [Compound 52, (R)-4-(pyridin-2-ylmethyl)-N-(pyrrolidin-2-ylmethyl)-3,4-dihydroquinoxaline-1(2H)-carboxamide], 1 to 10 µM.
Take `O=C(NC[C@@H]1CCOC1)N1CCN(Cc2ccccn2)c2ccccc21` [Compound 59, (S)-4-(pyridin-2-ylmethyl)-N-((tetrahydrofuran-3-yl)methyl)-3,4-dihydroquinoxaline-1(2H)-carboxamide]: the IC50 (Homo sapiens) is less than 1 µM.
The same measure, in the same setting: the result for `CC1(CNC(=O)N2CCN(Cc3ccccn3)c3ccccc32)COC1` [Compound 57, N-((3-methyloxetan-3-yl)methyl)-4-(pyridin-2-ylmethyl)-3,4-dihydroquinoxaline-1(2H)-carboxamide] reads not above 30 µM; that for `O=C(NCC1CC1)N1CCN(c2ccc(F)cc2)c2ccccc21` [Compound 6, N-(cyclopropylmethyl)-4-(4-fluorophenyl)-3,4-dihydroquinoxaline-1(2H)-carboxamide], 1 to 10 µM.
The same measure, in the same setting: the result for `CN1CCN(C(=O)N2CCN(C3CCCCC3)c3ccccc32)CC1` [Compound 70, (4-cyclohexyl-3,4-dihydroquinoxaline-1(2H)-yl)(4-methylpiperazin-1-yl)methanone] reads 1 to 10 µM; that for `O=C(N[C@H]1CCNC1)N1CCN(c2cnccn2)c2ccccc21` [Compound 19, (S)-4-(pyrazin-2-yl)-N-(pyrrolidin-3-yl)-3,4-dihydroquinoxaline-1(2H)-carboxamide], 1 to 10 µM; that for `O=C(N[C@@H]1CCOC1)N1CCN(c2cccnc2)c2ccccc21` [Compound 16, (R)-4-(pyridin-3-yl)-N-(tetrahydrofuran-3-yl)-3,4-dihydroquinoxaline-1 (2H)-carboxamide], 1 to 10 µM.
